Data: PMC5784824 (Journal of immunology (Baltimore, Md. : 1950), 2017)

Assays:
hP2X4 = target: T1, hP2X4 (Homo sapiens, UniProt Q99571); test: Fura-2 intracellular Ca2+ measurement in over-expressing […]1 cells; format: cell-based; conditions: agonist; pH 7.4; 1.5 mM CaCl2 buffer
T1 sequence (Q99571 1-388): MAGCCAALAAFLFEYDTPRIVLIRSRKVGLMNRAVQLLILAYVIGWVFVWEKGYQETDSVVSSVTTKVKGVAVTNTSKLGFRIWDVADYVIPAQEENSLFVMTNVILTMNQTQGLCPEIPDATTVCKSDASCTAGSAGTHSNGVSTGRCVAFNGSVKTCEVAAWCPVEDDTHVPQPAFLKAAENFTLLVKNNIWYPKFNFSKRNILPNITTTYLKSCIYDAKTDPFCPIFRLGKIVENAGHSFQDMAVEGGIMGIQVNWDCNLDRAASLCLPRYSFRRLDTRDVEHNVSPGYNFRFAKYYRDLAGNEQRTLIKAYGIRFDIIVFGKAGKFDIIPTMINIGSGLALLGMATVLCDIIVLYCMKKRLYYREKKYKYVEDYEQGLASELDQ

hP2X7 = target: T2, hP2X7 (Homo sapiens, UniProt Q99572); test: as above; format: cell-based; conditions: agonist; pH 7.4; 1.5 mM CaCl2 buffer
T2 sequence (Q99572 1-595): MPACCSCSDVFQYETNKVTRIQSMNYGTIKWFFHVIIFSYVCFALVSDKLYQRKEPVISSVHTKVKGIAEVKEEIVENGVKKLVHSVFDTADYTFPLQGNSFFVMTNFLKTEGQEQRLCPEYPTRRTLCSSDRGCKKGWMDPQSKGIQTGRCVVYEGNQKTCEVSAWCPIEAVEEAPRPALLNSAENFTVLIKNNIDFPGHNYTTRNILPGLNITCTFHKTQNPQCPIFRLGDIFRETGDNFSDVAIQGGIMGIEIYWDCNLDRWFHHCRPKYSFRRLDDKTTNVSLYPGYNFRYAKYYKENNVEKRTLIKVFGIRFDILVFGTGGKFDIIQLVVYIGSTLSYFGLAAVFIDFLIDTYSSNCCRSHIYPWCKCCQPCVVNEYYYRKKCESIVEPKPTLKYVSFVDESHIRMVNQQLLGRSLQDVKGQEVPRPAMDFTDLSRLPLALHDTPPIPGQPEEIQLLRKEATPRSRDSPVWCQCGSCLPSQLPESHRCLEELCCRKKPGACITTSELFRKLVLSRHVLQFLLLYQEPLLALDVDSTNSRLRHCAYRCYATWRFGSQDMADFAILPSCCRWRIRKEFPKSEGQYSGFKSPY

Nc1ncnc2c1ncn2[C@@H]1O[C@H](COP(=O)(O)OP(=O)(O)OP(=O)(O)O)[C@@H](O)[C@H]1O [ATP]
Ca2+ response (activation) at 100 μM ATP (hP2X4): in over-expressing cells illustrated maximal activation of P2X4 and no activation of P2X7 | Ca2+ response (no activation) at 100 μM ATP (hP2X7): in over-expressing cells illustrated maximal activation of P2X4 and no activation of P2X7
